In patent publication US6803233B2, “Model for Alzheimer's disease and other neurodegenerative diseases” (priority 2000, dated 2004):
Several values for one entry are separate records, joined by “and”; a condition that tells them apart may be missing. Equal entries are not always repeated. Entries after “also recorded” stand apart in the source; their conditions may differ.

Key:
[1] = test system: cathepsin D; experiment: Immunoblot of cathepsin D isoforms in cultured mouse hippocampal slices; type: cell-based; settings: 20 μM ZPAD, 6 days
[2] = test system: tau; experiment: Immunoblot of tau (tau-1, AT8) in cultured rat hippocampal slices; type: cell-based; settings: rat hippocampal slices; 6 days
Method: Immunoblotting was carried out by using anti-non phosphorylated tau antibody, tau-1 or anti-phosphorylated tau antibody, AT8.
(§1) Cultures of hippocampal slices were prepared from 10-12 days old rats.

[3] = test system: tangle-like structures; experiment: AT8 immunostaining of cultured rat hippocampal slices; type: cell-based; settings: rat hippocampal slices; agent applied for 6 days
Method: Cultured slices were stained with anti-phosphorylated tau antibody AT8.
as §1
Cultured rat hippocampal slices of 12 days in vitro were treated with 20 μM pravastatin for 6 days and processed from immunohistological studies with the monoclonal antibody AT8. The subiculum, CA1 field, and CA3 field of the hippocampus were examined by photomicroscopy.

[4] = test system: IL-10; experiment: RT-PCR/northern blot of cytokine mRNA in cultured hippocampal slices; type: cell-based; settings: ZPAD 20 μM, mevastatin 20 μM
[5] = test system: p35; experiment: Immunoblot of p35/p25 in cultured rat hippocampal slices; type: cell-based; settings: hippocampal slices
Method: Hippocampal slices were collected, homogenized, and subjected to SDS-PAGE electrophoresis. Immunoblots were then probed with anti-p35 sera that were raised against the C-terminal domain of p35.
as §1

[6] = test system: tangle-like structures; experiment: AT8 immunocytochemistry of cultured mouse hippocampal slices; type: cell-based; settings: ZPAD 6 days; for number of AT8 immunopositive profiles: 0.3 mm^2 box at CA1/subicular border, mean±s.e.m., n=5
Method: Hippocampal slices were prepared from 10 to 13 day old C57BL/6J (wild-type) and C57BL/6J-ApoE^tm1Unc (ApoE-knockout) mice obtained from the Jackson laboratory, Bar Harbor, Me. Pups were placed under light bromo-chloro-trifluoroethane anesthesia (Sigma, St. Louis, Mo.), and killed by decapitation. After removing the brains, the hippocampus was dissected and subsequently placed on a McIlwain tissue chopper where slices (400 μm thick) were obtained and placed in a solution of cutting medium consisting of Minimum Essential Medium (MEM) with Earle's salts (Gibco, Grand Island, N.Y.), 25 mM HEPES buffer, 10 mM Tris base, 10 mM glucose, and 3 mM MgCl2, pH 7.20. Hippocampal slices were then placed onto the membranes of Millicell-CM culture inserts (Millipore Corp., Bedford, Mass.) in 6 well culture cluster plates and 1 ml of media per well using the methods described by Stoppini et al., J. Neurosci. Methods 37(2):173-82 (1991). The culture medium was described previously by Bednarski et al., J. Neurosci. 17(11):4006-21 (1997). The cultures were incubated in a 37° C. atmosphere containing 5% CO2 and the culture medium was replaced every other day until the initiation of experiments. Each culture cluster plate contained hippocampal slices from either two wild-type or two apoE-knockout mice and individual wells were used for matched control and experimental treatment groups.
After maintaining the slices with normal culture medium (Bednarski et al., J. Neurosci. 17(11):4006-21 (1997)) in vitro for 12-14 days, slices were incubated with culture medium containing either 20 μM N-CBZ-L-phenylalanyl-L-alanine-diazomethyl-ketone (ZPAD; BACHEM Bioscience, Inc., Torrance, Calif.), an inhibitor of cathepsins B and L (Shaw & Dean, Biochem. J. 186:385-390 (1980); Green & Shaw, J Biol Chem. 256:1923-1928 (1981); Richardson et al., J. Cell Biol. 107: 2097-2107 (1988)) or vehicle (dimethylsulfoxide; DMSO, 0.01%-0.04%) for six days. This treatment media was exchanged every other day.
For immunocytochemical staining, control and ZPAD-treated slices from both wild-type and apoE-deficient mice were fixed in 4% paraformaldehyde in 0.1 M phosphate buffer (“PB”) at 4° C. overnight, rinsed once in a solution of phosphate buffered saline PBS (PB: phosphate buffer: 0.1M Na2HPO4 and NaH2PO4; PBS: phosphate buffered saline: NaCl 8 g, KCl 0.2 g, Na2HPO4 1.44 g, KH2PO4 0.24 g, dissolved in 1 liter distilled water, pH 7.4) cryoprotected in 20% sucrose in 0.1 M PB, sectioned on a freezing microtome at 25 μm parallel to the broad upper surface of the explant and mounted onto sterile Fisher Superfrost/Plus slides. […]

[7] = test system: TGF-beta; experiment: RT-PCR/northern blot of cytokine mRNA in cultured hippocampal slices; type: cell-based; settings: ZPAD 20 μM, mevastatin 20 μM
[8] = test system: cathepsin D; settings: literature report; cited from earlier work
[9] = apoE-knockout mouse slices, relative to yoked knockout controls
[10] = wild-type mouse slices, relative to controls, mean±s.e.m.

What does the source list for “N-CBZ-L-phenylalanyl-L-alanine-diazomethyl-ketone [ZPAD]”?
increase in cathepsin D heavy chain (~38 kDa) ([1]; apoE-knockout mouse slices, relative to control values): 84±26% and 84+26%; increase in cathepsin D proenzyme (~55 kDa) [1, 9]: 145±43% and 145+43%; increase in cathepsin D single chain (~50 kDa) [1, 9]: 150±29% and 150+29%; increase in cathepsin D heavy chain (~38 kDa) [1, 10]: 3.0±5.7% and 3.0+5.7%; increase in cathepsin D single chain form (~50 kDa) [1, 10]: 42±22% and 42+22%; increase in cathepsin D proenzyme (~55 kDa) ([1]; wild-type mouse slices, relative to yoked controls, mean±s.e.m., n=9): 65±29% and 65+29%; native tau proteins (tau-1 blot) [2]: decreases in the native tau proteins; also recorded: induced a truncation of native tau proteins; tau fragments (tau-1 blot) [2]: increases in fragments at apparent molecular weights of 40, 33, and 29 kDa; also recorded: generation of tau fragments; induction of AT8-immunoreactive tangle-like structures [3]: only a small number; also recorded: moderately increased; also recorded: induced numerous tangles; mRNA levels of IL-10 [4]: increases; levels of p35 ([5]; 6 days): significant decrease; truncated form p25 ([5]; six day treatment): paralleled increase; AT8-immunoreactive tangle-like structures ([6]; apoE-knockout mouse slices): present in large numbers; also recorded: significantly increased; also recorded: more than double; also recorded: Numerous, densely stained neurons; also recorded: Numerous immunopositive neurons; also recorded: numerous, densely labeled cells; number of AT8 immunopositive profiles ([6]; apoE-knockout slices): 193.8±15; AT8-immunoreactive tangle-like structures ([6]; wild-type mouse slices): occasionally found; also recorded: far fewer AT8-ir structures; number of AT8 immunopositive profiles ([6]; wild-type slices): 112.6±13; mRNA levels of TGF-beta [7]: increases; enzymatically active cathepsin D [8]: increases in enzymatically active cathepsin D
